Test results as given in ChEMBL document CHEMBL5365543, “Benzamidine Conjugation Converts Expelled Potential Active Agents into Antifungals against Drug-Resistant Fungi” (J Med Chem, 2023).
Values after ≈ are worked out from the molar mass of the structure shown. Active and inactive are the calls of the source. The calls are words filed in the database; no cut-off is given here.

Legend:
[Candida] auris [1] = Antifungal activity against clinical isolate fluconazole-resistant Candida auris CBS12776 assessed as inhibition of fungal growth measured after 24 hrs by CLSI based microtiter plate analysis; assay type: functional; details: Candidozyma auris
[2] = Cytotoxicity against human HBE cells assessed as inhibition of cell growth measured after 4 hrs by MTT assay; assay type: toxicity, cell-based
Candida tropicalis = assay: Antifungal activity against clinical isolate fluconazole-resistant Candida tropicalis CT10 assessed as inhibition of fungal growth measured after 24 hrs by CLSI based microtiter plate analysis; assay type: functional
[3] = Selectivity ratio of IC50 for cytotoxicity against human HBE cells to MIC80 for antifungal activity against clinical isolate fluconazole-resistant Candida albicans G5 harbouring MRR1 mutation overexpressing MdrL; assay type: toxicity, cell-based
[4] = Selectivity ratio of IC50 for cytotoxicity against human HBE cells to MIC80 for antifungal activity against clinical isolate Candida albicans YEM15 overexpressing efflux pump CdrL and Cdr2; assay type: toxicity, cell-based
Candida albicans [5] = assay: Antifungal activity against fluconazole-resistant clinical isolate Candida albicans Gu5 assessed as decrease in viable count at 2 to 4 microg/ml by colony-counting based time-killing kinetics assay; assay type: functional, organism-based; details: dose 2-4 µg/ml, time 24.0 hrs, TDE = time-dependent effect
Candida albicans [6] = assay: Inhibition of biofilm formation in wild-type Candida albicans SC5314 at 8 microg/ml measured after 24 hrs by alamar blue staining based colorimetric analysis; assay type: functional
Candida albicans [7] = assay: Antifungal activity against clinical isolate Candida albicans YEM13 overexpressing efflux pump MdrL assessed as inhibition of fungal growth measured after 24 hrs by CLSI based microtiter plate analysis; assay type: functional
Candida albicans [8] = assay: Antifungal activity against clinical isolate Candida albicans SCMRRIR34MPG2A harbouring MRR1 mutation overexpressing efflux pump MdrL assessed as inhibition of fungal growth measured after 24 hrs by CLSI based microtiter plate analysis; assay type: functional
[9] = Selectivity ratio of IC50 for cytotoxicity against human HBE cells to MIC80 for antifungal activity against wild-type Candida albicans SC5314; assay type: toxicity, cell-based
Candida albicans [10] = assay: (§1) Antifungal activity against clinical isolate fluconazole-resistant Candida albicans Gu5 infected in BALB/c mouse assessed as reduction in renal neutrophil infiltration at 6 mg/kg, ip administered on day 1 and day 3 post fungal infection measured after 7 days by periodic acid-schiff/hematoxylin and eosin staining based microscopic analysis; assay type: functional, organism-based; details: time 7.0 day
Candida albicans [11] = assay: as §1, with “kidney fungal infection” for “renal neutrophil infiltration”; assay type: functional, organism-based; details: time 7.0 day
Nakaseomyces glabratus = assay: Antifungal activity against clinical isolate fluconazole-resistant Candida glabrata CG2 assessed as inhibition of fungal growth measured after 24 hrs by CLSI based microtiter plate analysis; assay type: functional
[12] = Drug accumulation in wild-type Candida albicans SC5314 at 50 microg/ml incubated for 3 hrs by HPLC analysis; assay type: ADME; details: dose 50 µg/ml
Candida albicans [13] = assay: Antifungal activity against clinical isolate fluconazole-resistant Candida albicans DSY296 harbouring TAC1 mutation overexpressing efflux pump CdrL and Cdr2 assessed as inhibition of fungal growth measured after 24 hrs by CLSI based microtiter plate analysis; assay type: functional
Cryptococcus neoformans = assay: Antifungal activity against clinical isolate fluconazole-resistant Cryptococcus neoformans H99 assessed as inhibition of fungal growth measured after 24 hrs by CLSI based microtiter plate analysis; assay type: functional
Candida albicans [14] = assay: Antifungal activity against clinical isolate Candida albicans SCUPC2R14MPG2A harbouring UPC2 mutation overexpressing […] Erg11 assessed as inhibition of fungal growth measured after 24 hrs by CLSI based microtiter plate analysis; assay type: functional
Candida albicans [15] = assay: Antifungal activity against fluconazole-resistant clinical isolate Candida albicans Gu5 assessed as decrease in viable count measured after 24 hrs by colony-counting based time-killing kinetics assay; assay type: functional, organism-based; details: dose 2-4 µg/ml
[16] = Selectivity ratio of IC50 for cytotoxicity against human HBE cells to MIC80 for antifungal activity against clinical isolate fluconazole-resistant Candida albicans DSY296 harbouring TAC1 mutation overexpressing efflux pump CdrL and Cdr2; assay type: toxicity, cell-based
[17] = Toxicity in BALB/c mouse infected with clinical isolate fluconazole-resistant Candida albicans Gu5 assessed as animal survival rate at 6 mg/kg, ip administered on day 1 and day 3 post fungal infection measured after 7 days; assay type: organism-based; details: in vivo, 168 h, time 7 day
Candida albicans [18] = assay: Induction of drug resistance in wild-type Candida albicans SC5314 assessed as change in MIC at 0.5 times of MIC measured after 30 passages by broth microdilution method; assay type: functional
[Candida] auris [19] = Antifungal activity against clinical isolate fluconazole-resistant Candida auris CBS12774 assessed as inhibition of fungal growth measured after 24 hrs by CLSI based microtiter plate analysis; assay type: functional; details: Candidozyma auris
Candida albicans [20] = assay: Antifungal activity against wild-type Candida albicans SC5314 assessed as inhibition of fungal growth measured after 24 hrs by CLSI based microtiter plate analysis; assay type: functional
[21] = Selectivity ratio of IC50 for cytotoxicity against human HBE cells to MIC80 for antifungal activity against clinical isolate Candida albicans SCMRRIR34MPG2A harbouring MRR1 mutation overexpressing efflux pump MdrL; assay type: toxicity, cell-based
[22] = Selectivity ratio of IC50 for cytotoxicity against human HBE cells to MIC80 for antifungal activity against clinical isolate Candida albicans YEM13 overexpressing efflux pump MdrL; assay type: toxicity, cell-based
[23] = Selectivity ratio of IC50 for cytotoxicity against human HBE cells to MIC80 for antifungal activity against clinical isolate fluconazole-resistant Candida glabrata CG2; assay type: toxicity, cell-based
[24] = Selectivity ratio of IC50 for cytotoxicity against human HBE cells to MIC80 for antifungal activity against clinical isolate fluconazole-resistant Candida auris CBS12776; assay type: toxicity, cell-based
Candida albicans [25] = assay: Inhibition of biofilm formation in wild-type Candida albicans SC5314 at 2 microg/ml measured after 24 hrs by alamar blue staining based colorimetric analysis; assay type: functional, organism-based; details: dose 2.0 µg/ml
[26] = Selectivity ratio of IC50 for cytotoxicity against human HBE cells to MIC80 for antifungal activity against clinical isolate fluconazole-resistant Cryptococcus neoformans H99; assay type: toxicity, cell-based
[Candida] auris [27] = Antifungal activity against clinical isolate fluconazole-resistant Candida auris CBS12774 assessed as decrease in viable count at 2 to 4 microg/ml by colony-counting based time-killing kinetics assay; assay type: functional, organism-based; details: Candidozyma auris, dose 2-4 µg/ml, time 24.0 hrs, TDE = time-dependent effect
[Candida] auris [28] = Inhibition of biofilm formation in clinical isolate fluconazole-resistant Candida auris CBS12774 at 2 microg/ml measured after 24 hrs by alamar blue staining based colorimetric analysis; assay type: functional, organism-based; details: Candidozyma auris, dose 2.0 µg/ml
[29] = Selectivity ratio of IC50 for cytotoxicity against human HBE cells to MIC80 for antifungal activity against clinical isolate fluconazole-resistant Candida albicans Gu5 harbouring TAC1 mutation overexpressing efflux pump CdrL and Cdr2; assay type: toxicity, cell-based
Candida albicans [30] = assay: Antifungal activity against clinical isolate fluconazole-resistant Candida albicans CA632 assessed as inhibition of fungal growth measured after 24 hrs by CLSI based microtiter plate analysis; assay type: functional
[31] = Selectivity ratio of IC50 for cytotoxicity against human HBE cells to MIC80 for antifungal activity against clinical isolate Candida albicans SCUPC2R14MPG2A harbouring UPC2 mutation overexpressing […]; assay type: toxicity, cell-based
[32] = Selectivity ratio of IC50 for cytotoxicity against human HBE cells to MIC80 for antifungal activity against clinical isolate fluconazole-resistant Candida tropicalis CT10; assay type: toxicity, cell-based
Candida albicans [33] = assay: Antifungal activity against clinical isolate Candida albicans YEM15 overexpressing efflux pump CdrL and Cdr2 assessed as inhibition of fungal growth measured after 24 hrs by CLSI based microtiter plate analysis; assay type: functional

C=C1C(=O)[C@@]2(C)CC[C@@H]3[C@@]1(CC[C@H]1[C@@]3(C)CCC[C@@]1(C)C(=O)OCCCOc1ccc(C(=N)N)cc1)C2 showed an MIC80 ([Candida] auris [1]) of 2 µg/mL (≈ 3.95 µM), an IC50 at 4 h [2] of 16.7 µg/mL (≈ 33 µM) and an MIC80 (Candida tropicalis) of 2 µg/mL (≈ 3.95 µM). For the same molecule, the selectivity ratio [3] was 8, the selectivity ratio [4] was 8 and the Activity (Candida albicans [5]) was “Tde”. It also gave an inhibition at 8 µg/mL (Candida albicans [6]) of ~80.2%, an MIC80 (Candida albicans [7]) of 1 µg/mL (≈ 1.97 µM) and an MIC80 (Candida albicans [8]) of 2 µg/mL (≈ 3.95 µM). The selectivity ratio [9] was 8, the Activity (Candida albicans [10]) was “Active” and the Activity (Candida albicans [11]) was “Active”. The MIC80 (Nakaseomyces glabratus) was 2 µg/mL (≈ 3.95 µM), the Drug uptake [12] was “Active” and the MIC80 (Candida albicans [13]) was 2 µg/mL (≈ 3.95 µM). For the same molecule, the MIC80 (Cryptococcus neoformans) was 2 µg/mL (≈ 3.95 µM), the MIC80 (Candida albicans [14]) was 1 µg/mL (≈ 1.97 µM) and the Activity (Candida albicans [15]) was “Dose-Dependent Effect”. For the same molecule, the selectivity ratio [16] was 8, the Survival [17] was 40% and the Activity (Candida albicans [18]) was “Active”. The MIC80 ([Candida] auris [19]) was 2 µg/mL (≈ 3.95 µM), the MIC (Candida albicans [20]) was “inactive” and the MIC80 (Candida albicans [20]; Candida albicans, SC5314, 24 h, read-out: MIC80) was 1 µg/mL (≈ 1.97 µM). For the same molecule, the selectivity ratio [21] was 8, the selectivity ratio [22] was 8 and the selectivity ratio [23] was 8. For the same molecule, the selectivity ratio [24] was 8, the inhibition (Candida albicans [25]) was “Active” and the selectivity ratio [26] was 8. The Activity ([Candida] auris [27]) was “Tde”, the inhibition ([Candida] auris [28]) was “Active” and the selectivity ratio [29] was 8. It also gave an MIC80 (Candida albicans [30]) of 1 µg/mL (≈ 1.97 µM), a selectivity ratio [31] of 8 and a selectivity ratio [32] of 8. For the same molecule, the MIC80 (Candida albicans [33]) was 1 µg/mL (≈ 1.97 µM).
